Legend:
Format in all cases: functional
[1] = test system: Radical scavenging activity; experiment: DPPH radical scavenging activity at 0.0625 g/L
[2] = test system: Radical scavenging activity; experiment: DPPH radical scavenging activity at 0.125 g/L
[3] = test system: Radical scavenging activity; experiment: DPPH radical scavenging activity at 0.0156 g/L
[4] = test system: Radical scavenging activity; experiment: DPPH radical scavenging activity at 0.0312 g/L
[5] = test system: Radical scavenging activity; experiment: DPPH radical scavenging activity at 0.250 g/L

Structure (SMILES): COc1ccc(O)c(C(C)(C)C)c1.COc1ccc(O)cc1C(C)(C)C
- Activity [1]: 75.7%
- Activity [2]: 83%
- Activity [3]: 41.2%
- Activity [4]: 63%
- Activity [5]: 84%

Structure (SMILES): CCOC(=O)c1sc2ccccc2c1Nc1ccc(F)cc1
- Activity [1]: 0.72%
- Activity [2]: 0.86%
- Activity [3]: 0%
- Activity [4]: 0.54%
- Activity [5]: 0.9%

Structure (SMILES): Cc1cc(C(C)(C)C)c(O)c(C(C)(C)C)c1
- Activity [1]: 60%
- Activity [2]: 82.3%
- Activity [3]: 28%
- Activity [4]: 38.3%
- Activity [5]: 83%

Structure (SMILES): COc1ccc(Nc2c(C(=O)O)sc3ccccc23)c(OC)c1
- Activity [1]: 44.7%
- Activity [2]: 63%
- Activity [3]: 8.9%
- Activity [4]: 30.7%
- Activity [5]: 84%

Structure (SMILES): COc1ccc(Nc2cc3sc(C)c(C)c3cc2C)cc1
- Activity [1]: 76.6%
- Activity [2]: 76.8%
- Activity [3]: 38.3%
- Activity [4]: 68.5%
- Activity [5]: 77%

Structure (SMILES): Cc1cc2c(C)c(C)sc2cc1Nc1ccccc1F
- Activity [1]: 0.52%
- Activity [2]: 0.54%
- Activity [3]: 0%
- Activity [4]: 0%
- Activity [5]: 1.21%

Structure (SMILES): CCOC(=O)c1sc2ccccc2c1Nc1ccc(OC)cc1
- Activity [1]: 0.4%
- Activity [2]: 0.74%
- Activity [3]: 0%
- Activity [4]: 0%
- Activity [5]: 0.78%

Structure (SMILES): Cc1cc2c(C)c(C)sc2cc1Nc1ccc(F)cc1
- Activity [1]: 0%
- Activity [2]: 0.4%
- Activity [3]: 0%
- Activity [4]: 0%
- Activity [5]: 2.8%

Structure (SMILES): Fc1ccc(Nc2csc3ccccc23)cc1
- Activity [1]: 67.7%
- Activity [2]: 83.4%
- Activity [3]: 26.8%
- Activity [4]: 44.7%
- Activity [5]: 85%

Structure (SMILES): CCOC(=O)c1sc2ccccc2c1Nc1ccc(OC)cc1OC
- Activity [1]: 51.1%
- Activity [2]: 64.7%
- Activity [3]: 20.8%
- Activity [4]: 34.8%
- Activity [5]: 74.8%

Structure (SMILES): COc1ccc(Nc2cc3sc(C)c(C)c3cc2C)cc1OC
- Activity [1]: 74.6%
- Activity [2]: 75%
- Activity [3]: 49%
- Activity [4]: 65.3%
- Activity [5]: 75.4%
